Measurements from patent US10011586B2, “Heterocyclic compound, method for preparing the same, and pharmaceutical composition comprising the same” (Daewoong Pharmaceutical Co., Ltd., priority 2015, dated 2018).
Read-outs that look alike come from different tables or passages of the source.

Tests used:
PRS enzyme = target: T1, PRS enzyme (Homo sapiens, UniProt P07814); assay: PRS enzyme activity inhibition experiment; format: biochemical
T1 construct: the portion corresponding to PRS in cDNA of EPRS was subcloned; made in house
T1 sequence (P07814 1007-1512 limits assumed): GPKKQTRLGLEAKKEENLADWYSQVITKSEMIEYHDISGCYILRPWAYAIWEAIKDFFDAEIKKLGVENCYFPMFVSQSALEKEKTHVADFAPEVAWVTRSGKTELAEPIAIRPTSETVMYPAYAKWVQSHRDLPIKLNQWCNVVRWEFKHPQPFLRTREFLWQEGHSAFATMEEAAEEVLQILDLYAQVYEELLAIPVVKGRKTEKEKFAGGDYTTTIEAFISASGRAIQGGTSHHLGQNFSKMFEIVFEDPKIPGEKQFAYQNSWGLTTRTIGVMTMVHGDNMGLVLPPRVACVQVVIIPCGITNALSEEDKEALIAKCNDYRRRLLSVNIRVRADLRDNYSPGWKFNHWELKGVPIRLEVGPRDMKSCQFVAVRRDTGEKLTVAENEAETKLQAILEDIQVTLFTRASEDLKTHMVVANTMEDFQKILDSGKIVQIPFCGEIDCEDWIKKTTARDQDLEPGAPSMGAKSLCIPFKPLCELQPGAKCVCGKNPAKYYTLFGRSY
Experimental: Specifically, the portion corresponding to PRS in cDNA of EPRS was subcloned, and the obtained high-purity PRS protein was purified and used in the experiment. The compounds (1 μM) prepared in Examples were added into the reaction buffer (20 mM KPO4 (pH 7.4), 6 mM MgAc, 5 mM ATP, […] tRNA, 0.5 mM DTT, […][^3H]proline (1 mCi/mL)) and allowed to react at 37° C. for 5 to 10 minutes. The reaction was terminated with 3M paper that was in advance dried by addition of 5% TCA. The radioactivity was measured using a liquid scintillation counter.
% Inhibition and IC50 values of the respective compounds were calculated and analyzed using Microsoft Excel or Sigma Plot 8.0. In Table 1, the results are divided into A, B and C according to the range of IC50.

NCI-H460 cells = assay: Cancer cell growth inhibition experiment (MTT assay); format: cell-based; details: Homo sapiens, lung cancer cell line, compounds 48 hours, cell viability by MTT assay
Experimental: NCl-H460 cells, lung cancer cell lines, were cultured in 5% CO2, 37° C. incubator using a flask for 75 cm^2 tissue culture. 96-well plates were used for the evaluation. These were prepared by differently applying at concentrations in the range of 6,000 to 12,000 cells/well according to the growth rate of the cell lines. The medium containing 5% FBS were dispensed in 200 μL/well and used. The medium were cultured for 24 hours. After confirming the cell status and dispensing form of a 96-well plate under a microscope, they were used for subsequent experiments. The compounds were evaluated at concentrations of 100, 30, 10, 3, 1, 0.3, 0.03, 0.01 μM. After removing the existing medium, the compounds with various concentrations were treated in an amount of 200 μL/well. The compounds-treated plates were further cultured for 48 hours, and the cell viabilities were measured by MTT assay to calculate IC50 values.
% Inhibition and IC50 values of the respective compounds were calculated and analyzed using Sigma Plot 8.0. In Table 2, the results are divided into A, B and C according to the range of IC50. The case where the derived IC50 is 3 μM or less is represented by “A”, the case where the IC50 is 3 to 10 μM is represented by “B”, and the case where the IC50 is 10 μM or higher is represented by “C”.

[1] = purified PRS protein subcloned from EPRS cDNA, [3H]proline, 37° C., 5 to 10 minutes, liquid scintillation counter, read-out: PRS IC50

SMILES | IC50 (PRS enzyme; [1]) | IC50 (NCI-H460 cells) | IC50 (PRS enzyme)
O=C(C[C@H]1NCCC[C@@H]1O)Cn1cnc2c(N3CCCC3)nccc21 [Example 7, 1-((2R,3S)-3-hydroxypiperidin-2-yl)-3-(4-(pyrrolidin-1-yl)-1H-imidazo[4,5-c]pyridin-1-yl)propan-2-one] |  | ≥ 10 µM | 
O=C(C[C@H]1NCCC[C@@H]1O)Cn1cnc2nc(-c3ccc(F)cc3)ccc21 [Example 11, 1-(5-(4-fluorophenyl)-1H-imidazo[4,5-b]pyridin-1-yl)-3-((2R,3S)-3-hydroxypiperidin-2-yl)propan-2-one] | > 0.5 µM |  | 
O=C(C[C@H]1NCCC[C@@H]1O)Cn1cnc2nc(-c3cccc(Cl)c3)ccc21 [Example 12, 1-(5-(3-chlorophenyl)-1H-imidazo[4,5-b]pyridin-1-yl)-3-((2R,3S)-3-hydroxypiperidin-2-yl)propan-2-one] | > 0.5 µM |  | 
O=C(C[C@H]1NCCC[C@@H]1O)Cn1cnc2nc(-c3cccc(C(F)(F)F)c3)ccc21 [Example 13, 1-((2R,3S)-3-hydroxypiperidin-2-yl)-3-(5-(3-(trifluoromethyl)phenyl)-1H-imidazo[4,5-b]pyridin-1-yl)propan-2-one] | > 0.5 µM |  | 
O=C(C[C@H]1NCCC[C@@H]1O)Cn1cnc2cc(-c3cccc(C(F)(F)F)c3)cnc21 [Example 15, 1-((2R,3S)-3-hydroxypiperidin-2-yl)-3-(6-(3-(trifluoromethyl)phenyl)-3H-imidazo[4,5-b]pyridin-3-yl)propan-2-one] | > 0.5 µM |  | 
Cc1c(-c2ccccc2Cl)ccc2c1ncn2CC(=O)C[C@H]1NCCC[C@@H]1O [Example 18, 1-(5-(2-chlorophenyl)-4-methyl-1H-benzo[d]imidazol-1-yl)-3-((2R,3S)-3-hydroxypiperidin-2-yl)propan-2-one] | > 0.5 µM | ≥ 10 µM | 
Cc1c(-c2cccc(C#N)c2)ccc2c1ncn2CC(=O)C[C@H]1NCCC[C@@H]1O [Example 20, 3-(1-(3-((2R,3S)-3-hydroxypiperidin-2-yl)-2-oxopropyl)-4-methyl-1H-benzo[d]imidazol-5-yl)benzonitrile] | > 0.5 µM | ≥ 10 µM | 
COc1cccc(-c2ccc3c(ncn3CC(=O)C[C@H]3NCCC[C@@H]3O)c2C)c1 [Example 22, 1-((2R,3S)-3-hydroxypiperidin-2-yl)-3-(5-(3-methoxyphenyl)-4-methyl-1H-benzo[d]imidazol-1-yl)propan-2-one] | > 0.5 µM | ≥ 10 µM | 
O=C(C[C@H]1NCCC[C@@H]1O)Cn1cnc2cccc(-c3ccccc3C(F)(F)F)c21 [Example 52, 1-((2R,3S)-3-hydroxypiperidin-2-yl)-3-(7-(2-(trifluoromethyl)phenyl)-1H-benzo[d]imidazol-1-yl)propan-2-one] | > 0.5 µM |  | 
O=C(C[C@H]1NCCC[C@@H]1O)Cn1cnc2cccc(-c3cccc(C(F)(F)F)c3)c21 [Example 53, 1-((2R,3S)-3-hydroxypiperidin-2-yl)-3-(7-(3-(trifluoromethyl)phenyl)-1H-benzo[d]imidazol-1-yl)propan-2-one] | > 0.5 µM |  | 
O=C(C[C@H]1NCCC[C@@H]1O)Cn1c(CO)nc2cc(-c3ccccc3)ccc21 [Example 55, 1-(2-(hydroxymethyl)-5-phenyl-1H-benzo[d]imidazol-1-yl)-3-((2R,3S)-3-hydroxypiperidin-2-yl)propan-2-one] |  |  | > 0.5 µM

Further lines, with some results ahead:

IC50 (PRS enzyme; [1]) | IC50 (NCI-H460 cells) | SMILES | IC50 (PRS enzyme)
0.1 to 0.5 µM | ≥ 10 µM | O=C(C[C@H]1NCCC[C@@H]1O)Cn1cnc2c(-c3ccccc3)cccc21 [Example 1, 1-((2R,3S)-3-hydroxypiperidin-2-yl)-3-(4-phenyl-1H-benzo[d]imidazol-1-yl)propan-2-one] | 
> 0.5 µM |  | O=C(C[C@H]1NCCC[C@@H]1O)Cn1cnc2c(-c3cccc(F)c3)nccc21 [Example 2, 1-(4-(3-fluorophenyl)-1H-imidazo[4,5-c]pyridin-1-yl)-3-((2R,3S)-3-hydroxypiperidin-2-yl)propan-2-one] | 
> 0.5 µM |  | O=C(C[C@H]1NCCC[C@@H]1O)Cn1cnc2c(-c3cccc(Cl)c3)nccc21 [Example 3, 1-(4-(3-chlorophenyl)-1H-imidazo[4,5-c]pyridin-1-yl)-3-((2R,3S)-3-hydroxypiperidin-2-yl)propan-2-one] | 
> 0.5 µM |  | O=C(C[C@H]1NCCC[C@@H]1O)Cn1cnc2c(-c3cccc(C(F)(F)F)c3)nccc21 [Example 4, 1-((2R,3S)-3-hydroxypiperidin-2-yl)-3-(4-(3-(trifluoromethyl)phenyl)-1H-imidazo[4,5-c]pyridin-1-yl)propan-2-one] | 
> 0.5 µM |  | O=C(C[C@H]1NCCC[C@@H]1O)Cn1cnc2c(-c3cc(F)cc(Cl)c3)nccc21 [Example 5, 1-(4-(3-chloro-5-fluorophenyl)-1H-imidazo[4,5-c]pyridin-1-yl)-3-((2R,3S)-3-hydroxypiperidin-2-yl)propan-2-one] | 
> 0.5 µM |  | O=C(C[C@H]1NCCC[C@@H]1O)Cn1cnc2c(-c3cc(Cl)cc(Cl)c3)nccc21 [Example 6, 1-(4-(3,5-dichlorophenyl)-1H-imidazo[4,5-c]pyridin-1-yl)-3-((2R,3S)-3-hydroxypiperidin-2-yl)propan-2-one] | 
> 0.5 µM | ≥ 10 µM | O=C(C[C@H]1NCCC[C@@H]1O)Cn1cnc2cc(-c3ccccc3)ccc21 [Example 8, 1-((2R,3S)-3-hydroxypiperidin-2-yl)-3-(5-phenyl-1H-benzo[d]imidazol-1-yl)propan-2-one] | 
> 0.5 µM |  | O=C(C[C@H]1NCCC[C@@H]1O)Cn1cnc2nc(-c3ccccc3F)ccc21 [Example 9, 1-(5-(2-fluorophenyl)-1H-imidazo[4,5-b]pyridin-1-yl)-3-((2R,3S)-3-hydroxypiperidin-2-yl)propan-2-one] | 
> 0.5 µM |  | O=C(C[C@H]1NCCC[C@@H]1O)Cn1cnc2nc(-c3cccc(F)c3)ccc21 [Example 10, 1-(5-(3-fluorophenyl)-1H-imidazo[4,5-b]pyridin-1-yl)-3-((2R,3S)-3-hydroxypiperidin-2-yl)propan-2-one] | 
0.1 to 0.5 µM | ≥ 10 µM | O=C(C[C@H]1NCCC[C@@H]1O)Cn1cnc2cc(-c3cccc(Cl)c3)cnc21 [Example 14, 1-(6-(3-chlorophenyl)-3H-imidazo[4,5-b]pyridin-3-yl)-3-((2R,3S)-3-hydroxypiperidin-2-yl)propan-2-one] | 
0.1 to 0.5 µM | ≥ 10 µM | Cc1c(-c2cccc(F)c2)ccc2c1ncn2CC(=O)C[C@H]1NCCC[C@@H]1O [Example 16, 1-(5-(3-fluorophenyl)-4-methyl-1H-benzo[d]imidazol-1-yl)-3-((2R,3S)-3-hydroxypiperidin-2-yl)propan-2-one] | 
0.1 to 0.5 µM | ≥ 10 µM | Cc1c(-c2cccc(Cl)c2)ccc2c1ncn2CC(=O)C[C@H]1NCCC[C@@H]1O [Example 17, 1-(5-(3-chlorophenyl)-4-methyl-1H-benzo[d]imidazol-1-yl)-3-((2R,3S)-3-hydroxypiperidin-2-yl)propan-2-one] | 
0.1 to 0.5 µM | ≥ 10 µM | Cc1c(-c2ccc(Cl)cc2)ccc2c1ncn2CC(=O)C[C@H]1NCCC[C@@H]1O [Example 19, 1-(5-(4-chlorophenyl)-4-methyl-1H-benzo[d]imidazol-1-yl)-3-((2R,3S)-3-hydroxypiperidin-2-yl)propan-2-one] | 
0.1 to 0.5 µM | ≥ 10 µM | Cc1c(-c2cccc(C(F)(F)F)c2)ccc2c1ncn2CC(=O)C[C@H]1NCCC[C@@H]1O [Example 21, 1-((2R,3S)-3-hydroxypiperidin-2-yl)-3-(4-methyl-5-(3-(trifluoromethyl)phenyl)-1H-benzo[d]imidazol-1-yl)propan-2-one] | 
0.1 to 0.5 µM |  | O=C(C[C@H]1NCCC[C@@H]1O)Cn1cnc2ncc(-c3cccc(C(F)(F)F)c3)cc21 [Example 42, 1-((2R,3S)-3-hydroxypiperidin-2-yl)-3-(6-(3-(trifluoromethyl)phenyl)-1H-imidazo[4,5-b]pyridin-1-yl)propan-2-one] | 
